The values that follow come from article PMC5218480 (PLoS ONE, 2017).

This assay deals with MV-4-11 cells. In words: Gene expression microarray analysis (Affymetrix PrimeView) and GSEA. The class given is cell-based, human. On the set-up: RFU PODN (11730768_x_at) / Fold change /veh PODN (11730768_x_at) / RFU LINC00158 (11744669_a_at) / Fold change /veh LINC00158 (11744669_a_at) / RFU DUSP10 (11751237_a_at) / Fold change /veh DUSP10 (11751237_a_at) / RFU ID3 (11757404_x_at) / Fold change /veh ID3 (11757404_x_at) / RFU PLEKHG5 (11737974_s_at) / Fold change /veh PLEKHG5 (11737974_s_at) / RFU LRRC4B (11730491_at) / Fold change /veh LRRC4B (11730491_at) / RFU GIMAP4 (11747438_a_at) / Fold change /veh GIMAP4 (11747438_a_at) / RFU KRT8 (11758183_x_at) / Fold change /veh KRT8 (11758183_x_at) / RFU CNN1 (11734310_a_at) / Fold change /veh CNN1 (11734310_a_at) / RFU VPS37D (11726825_at) / Fold change /veh VPS37D (11726825_at) / RFU C10orf10 (11716522_x_at) / Fold change /veh C10orf10 (11716522_x_at) / RFU KIR2DL2 /// KIR2DL4 /// KIR2DL5A /// KIR2DL5B /// KIR2DS1 /// KIR2DS2 /// KIR2DS3 /// KIR2DS4 /// KIR3DL3 /// KIR3DL3 /// KIR3DS1 (11738374_at) / Fold change /veh KIR2DL2 /// KIR2DL4 /// KIR2DL5A /// KIR2DL5B /// KIR2DS1 /// KIR2DS2 /// KIR2DS3 /// KIR2DS4 /// KIR3DL3 /// KIR3DL3 /// KIR3DS1 (11738374_at) / RFU C1QL1 (11718748_at) / Fold change /veh C1QL1 (11718748_at) / RFU TMPRSS4 (11747572_a_at) / Fold change /veh TMPRSS4 (11747572_a_at) / RFU HAMP (11756126_x_at) / Fold change /veh HAMP (11756126_x_at) / RFU RNFT2 (11725882_a_at) / Fold change /veh RNFT2 (11725882_a_at) / RFU NR4A2 (11747474_a_at) / Fold change /veh NR4A2 (11747474_a_at) / RFU ABCC12 (11746883_a_at) / Fold change /veh ABCC12 (11746883_a_at) / RFU TMEM136 (11760407_x_at) / Fold change /veh TMEM136 (11760407_x_at) / RFU CLDN22 /// WWC2 (11732394_at) / Fold change /veh CLDN22 /// WWC2 (11732394_at) / RFU HLA-DPB1 (11760878_x_at) / Fold change /veh HLA-DPB1 (11760878_x_at) / RFU SPINT1 (11716480_a_at) / Fold change /veh SPINT1 (11716480_a_at) / RFU GAP43 (11754022_s_at) / Fold change /veh GAP43 (11754022_s_at) / RFU A4GNT (11735810_at) / Fold change /veh A4GNT (11735810_at) / RFU PRB3 (11715151_x_at) / Fold change /veh PRB3 (11715151_x_at) / RFU TUBB4B (11761932_at) / Fold change /veh TUBB4B (11761932_at) / RFU CAPN14 (11732068_a_at) / Fold change /veh CAPN14 (11732068_a_at) / RFU TMCC2 (11721928_a_at) / Fold change /veh TMCC2 (11721928_a_at) / RFU IRGQ (11745062_a_at) / Fold change /veh IRGQ (11745062_a_at) / RFU FAM174B (11720279_a_at) / Fold change /veh FAM174B (11720279_a_at) / RFU TMPRSS4 (11748680_a_at) / Fold change /veh TMPRSS4 (11748680_a_at) / RFU FAM212B (11763350_a_at) / Fold change /veh FAM212B (11763350_a_at) / RFU PLEKHG5 (11743358_a_at) / Fold change /veh PLEKHG5 (11743358_a_at) / RFU ZSCAN30 (11745921_a_at) / Fold change /veh ZSCAN30 (11745921_a_at) / RFU CMKLR1 (11741424_a_at) / Fold change /veh CMKLR1 (11741424_a_at) / RFU LOC101060620 /// MAPK8IP1 (11723275_at) / Fold change /veh LOC101060620 /// MAPK8IP1 (11723275_at) / RFU SPTSSB (11747773_x_at) / Fold change /veh SPTSSB (11747773_x_at) / RFU PRSS12 (11739890_at) / Fold change /veh PRSS12 (11739890_at) / RFU BIN1 (11741810_x_at) / Fold change /veh BIN1 (11741810_x_at) / RFU WNT11 (11732464_a_at) / Fold change /veh WNT11 (11732464_a_at) / RFU C10orf10 (11716521_a_at) / Fold change /veh C10orf10 (11716521_a_at) / RFU C5orf56 (11738089_at) / Fold change /veh C5orf56 (11738089_at) / RFU CYB561 (11721691_x_at) / Fold change /veh CYB561 (11721691_x_at) / RFU ANKRD19P (11752326_a_at) / Fold change /veh ANKRD19P (11752326_a_at) / RFU OR2T12 /// OR2T33 /// OR2T8 (11738714_s_at) / Fold change /veh OR2T12 /// OR2T33 /// OR2T8 (11738714_s_at) / RFU VCAN (11748164_a_at) / Fold change /veh VCAN (11748164_a_at) / RFU JSRP1 (11732532_at) / Fold change /veh JSRP1 (11732532_at) / RFU KRTAP10-11 (11738290_x_at) / Fold change /veh KRTAP10-11 (11738290_x_at) / RFU MYO3A (11730013_a_at) / Fold change /veh MYO3A (11730013_a_at) / RFU EBF3 (11725865_a_at) / Fold change /veh EBF3 (11725865_a_at) / RFU CAMK2N1 (11719241_x_at) / Fold change /veh CAMK2N1 (11719241_x_at) / RFU C5orf56 (11738088_a_at) / Fold change /veh C5orf56 (11738088_a_at) / RFU OLFML3 (11715873_a_at) / Fold change /veh OLFML3 (11715873_a_at) / RFU LOC100653217 /// NTM (11731650_a_at) / Fold change /veh LOC100653217 /// NTM (11731650_a_at) / RFU MAPK11 (11762145_a_at) / Fold change /veh MAPK11 (11762145_a_at) / RFU FIZ1 (11724087_x_at) / Fold change /veh FIZ1 (11724087_x_at) / RFU OASL (11726364_x_at) / Fold change /veh OASL (11726364_x_at) / RFU SOX15 (11748057_x_at) / Fold change /veh SOX15 (11748057_x_at) / RFU CD79A (11719716_a_at) / Fold change /veh CD79A (11719716_a_at) / RFU HIST1H1D (11736915_at) / Fold change /veh HIST1H1D (11736915_at) / RFU CASKIN2 (11723855_a_at) / Fold change /veh CASKIN2 (11723855_a_at) / RFU LOC730098 (11760151_x_at) / Fold change /veh LOC730098 (11760151_x_at) / RFU OR4N2 (11742367_at) / Fold change /veh OR4N2 (11742367_at) / RFU PRRT2 (11749266_a_at) / Fold change /veh PRRT2 (11749266_a_at) / RFU SNX32 (11753110_a_at) / Fold change /veh SNX32 (11753110_a_at) / RFU CDHR5 (11726645_a_at) / Fold change /veh CDHR5 (11726645_a_at) / RFU RCAN1 (11760418_a_at) / Fold change /veh RCAN1 (11760418_a_at) / RFU FAM167A (11723789_a_at) / Fold change /veh FAM167A (11723789_a_at) / RFU FAM26E (11764081_at) / Fold change /veh FAM26E (11764081_at) / RFU ISYNA1 (11749810_s_at) / Fold change /veh ISYNA1 (11749810_s_at) / RFU ACY1 (11761880_at) / Fold change /veh ACY1 (11761880_at) / RFU 11764098_at / Fold change /veh 11764098_at / RFU SAMD14 (11745864_x_at) / Fold change /veh SAMD14 (11745864_x_at) / RFU NPB (11741838_a_at) / Fold change /veh NPB (11741838_a_at) / RFU TMPRSS6 (11731388_a_at) / Fold change /veh TMPRSS6 (11731388_a_at) / RFU KRTAP10-2 (11738614_at) / Fold change /veh KRTAP10-2 (11738614_at) / RFU ARHGAP8 /// PRR5-ARHGAP8 (11727945_x_at) / Fold change /veh ARHGAP8 /// PRR5-ARHGAP8 (11727945_x_at) / RFU KRTAP5-7 /// NADSYN1 (11734609_at) / Fold change /veh KRTAP5-7 /// NADSYN1 (11734609_at) / RFU RASL12 (11751679_a_at) / Fold change /veh RASL12 (11751679_a_at) / RFU CDKN2B (11736163_a_at) / Fold change /veh CDKN2B (11736163_a_at) / RFU PRF1 (11729649_at) / Fold change /veh PRF1 (11729649_at) / RFU, ZNF638 /// ZNF638-IT1 / Fold change vs veh, ZNF638 /// ZNF638-IT1 / RFU, PANK3 / Fold change vs veh, PANK3 / RFU, SH3YL1 / Fold change vs veh, SH3YL1 / RFU, ZEB2 / Fold change vs veh, ZEB2 / RFU, NRIP1 / Fold change vs veh, NRIP1 / RFU, PTTG1IP / Fold change vs veh, PTTG1IP / RFU, CAPN2 / Fold change vs veh, CAPN2 / RFU, MED14 / Fold change vs veh, MED14 / RFU, SNORA58 / Fold change vs veh, SNORA58 / RFU, C1orf63 / Fold change vs veh, C1orf63 / RFU, LRRFIP1 / Fold change vs veh, LRRFIP1 / RFU, NDUFAF7 / Fold change vs veh, NDUFAF7 / RFU, SLC12A2 / Fold change vs veh, SLC12A2 / RFU, IBTK / Fold change vs veh, IBTK / RFU, ESF1 / Fold change vs veh, ESF1 / Fold change vs veh, TMEM50B / RFU, TAOK1 / Fold change vs veh, TAOK1 / RFU, ACBD3 / Fold change vs veh, ACBD3 / RFU, TMA16 / Fold change vs veh, TMA16 / RFU, RWDD3 / Fold change vs veh, RWDD3 / RFU, BCAT1 / Fold change vs veh, BCAT1 / RFU, EDEM3 / Fold change vs veh, EDEM3 / RFU, TMEM33 / Fold change vs veh, TMEM33 / RFU, WDR75 / Fold change vs veh, WDR75 / RFU, AHCTF1 / Fold change vs veh, AHCTF1 / RFU, TFRC / Fold change vs veh, TFRC / RFU, ZDHHC17 / Fold change vs veh, ZDHHC17 / RFU, NOM1 / Fold change vs veh, NOM1 / RFU, ARL8B / Fold change vs veh, ARL8B / RFU, ZBTB11 / Fold change vs veh, ZBTB11 / RFU, TAMM41 / Fold change vs veh, TAMM41 / RFU, KIAA1704 /// LOC100996395 / Fold change vs veh, KIAA1704 /// LOC100996395 / RFU, ING1 / Fold change vs veh, ING1 / RFU, TRMT61B / Fold change vs veh, TRMT61B / RFU, FUBP3 / Fold change vs veh, FUBP3 / RFU, TP53 / Fold change vs veh, TP53 / RFU, TNKS2 / Fold change vs veh, TNKS2 / RFU, ZFP14 / Fold change vs veh, ZFP14 / RFU, ACTR2 / Fold change vs veh, ACTR2 / RFU, PPP3R1 / Fold change vs veh, PPP3R1 / RFU, PIK3R1 / Fold change vs veh, PIK3R1 / RFU, HNRNPA1 / Fold change vs veh, HNRNPA1 / RFU, RNF170 / Fold change vs veh, RNF170 / RFU, ZNF28 / Fold change vs veh, ZNF28 / RFU, RNGTT / Fold change vs veh, RNGTT / RFU, OGT / Fold change vs veh, OGT / RFU, BRD1 / Fold change vs veh, BRD1 / RFU, MARS / Fold change vs veh, MARS / RFU, ZNF655 / Fold change vs veh, ZNF655 / RFU, FAHD1 / Fold change vs veh, FAHD1 / RFU, BDP1 / Fold change vs veh, BDP1 / RFU, LRRCC1 / Fold change vs veh, LRRCC1 / RFU, ARID1A / Fold change vs veh, ARID1A / RFU, ZNF146 / Fold change vs veh, ZNF146 / RFU, ZNF330 / Fold change vs veh, ZNF330 / RFU, GPN3 / Fold change vs veh, GPN3 / RFU, C9orf123 / Fold change vs veh, C9orf123 / RFU, N4BP2L2 / Fold change vs veh, N4BP2L2 / RFU, ARFIP1 / Fold change vs veh, ARFIP1 / RFU, FAM179B / Fold change vs veh, FAM179B / RFU, BCL10 / Fold change vs veh, BCL10 / RFU, UHRF1BP1L / Fold change vs veh, UHRF1BP1L / RFU, BET1 / Fold change vs veh, BET1 / RFU, CNOT2 / Fold change vs veh, CNOT2 / RFU, ZNF268 / Fold change vs veh, ZNF268 / Fold change vs veh, ZNF507 / RFU, DGCR2 / Fold change vs veh, DGCR2 / RFU, WDSUB1 / Fold change vs veh, WDSUB1 / Fold change vs veh, HSP90B1 /// MIR3652 / RFU, ADSS / Fold change vs veh, ADSS / RFU, GK / Fold change vs veh, GK / RFU, ZNF148 / Fold change vs veh, ZNF148 / RFU, TAF9 / Fold change vs veh, TAF9 / RFU, SLC1A5 / Fold change vs veh, SLC1A5 / RFU, SLMO2 / Fold change vs veh, SLMO2 / RFU, ABCC4 / Fold change vs veh, ABCC4 / RFU, LOC101060439 /// RAP1B / Fold change vs veh, LOC101060439 /// RAP1B / RFU, RFX7 / Fold change vs veh, RFX7 / RFU, GTPBP10 / Fold change vs veh, GTPBP10 / RFU, CNEP1R1 / Fold change vs veh, CNEP1R1 / RFU, BIVM-ERCC5 /// ERCC5 / Fold change vs veh, BIVM-ERCC5 /// ERCC5 / RFU, ILF3 / Fold change vs veh, ILF3 / RFU 11762660_at / Fold change /veh 11762660_at / RFU VCAN (11757783_s_at) / Fold change /veh VCAN (11757783_s_at) / RFU DDX43 (11728927_at) / Fold change /veh DDX43 (11728927_at) / RFU KRT8 (11758188_x_at) / Fold change /veh KRT8 (11758188_x_at) / RFU NKD1 (11759106_at) / Fold change /veh NKD1 (11759106_at) / RFU SRD5A1 (11742802_a_at) / Fold change /veh SRD5A1 (11742802_a_at) / RFU TPSAB1 /// TPSB2 (11721975_s_at) / Fold change /veh TPSAB1 /// TPSB2 (11721975_s_at) / RFU GSTM3 (11746129_a_at) / Fold change /veh GSTM3 (11746129_a_at) / RFU IL23R (11737362_x_at) / Fold change /veh IL23R (11737362_x_at) / RFU TMEM51 (11727254_a_at) / Fold change /veh TMEM51 (11727254_a_at) / RFU PIWIL2 (11732686_x_at) / Fold change /veh PIWIL2 (11732686_x_at) / RFU ORM1 (11744905_x_at) / Fold change /veh ORM1 (11744905_x_at) / RFU CCDC152 (11743942_at) / Fold change /veh CCDC152 (11743942_at) / RFU ECM1 (11717891_a_at) / Fold change /veh ECM1 (11717891_a_at) / RFU IL23R (11748794_a_at) / Fold change /veh IL23R (11748794_a_at) / RFU TNFAIP8L3 (11732012_x_at) / Fold change /veh TNFAIP8L3 (11732012_x_at) / RFU MBOAT4 (11741988_at) / Fold change /veh MBOAT4 (11741988_at) / RFU 11764193_at / Fold change /veh 11764193_at / RFU TMEM53 (11763286_at) / Fold change /veh TMEM53 (11763286_at) / RFU MAGEB2 (11727129_at) / Fold change /veh MAGEB2 (11727129_at) / RFU TMEM200A (11744735_a_at) / Fold change /veh TMEM200A (11744735_a_at) / RFU CCDC152 (11751479_a_at) / Fold change /veh CCDC152 (11751479_a_at) / RFU FAM211A (11726209_a_at) / Fold change /veh FAM211A (11726209_a_at) / RFU RGS16 (11746705_a_at) / Fold change /veh RGS16 (11746705_a_at) / RFU VCAN (11755009_s_at) / Fold change /veh VCAN (11755009_s_at) / RFU RHOB (11743442_s_at) / Fold change /veh RHOB (11743442_s_at) / RFU RGS16 (11720943_a_at) / Fold change /veh RGS16 (11720943_a_at) / RFU RGS16 (11720944_at) / Fold change /veh RGS16 (11720944_at) / RFU, VPS4B / Fold change vs veh, VPS4B / RFU, CREB1 / Fold change vs veh, CREB1 / RFU, DNAJC13 / Fold change vs veh, DNAJC13 / RFU, GNAQ / Fold change vs veh, GNAQ / RFU, CDK5R1 / Fold change vs veh, CDK5R1 / RFU, ZRANB3 / Fold change vs veh, ZRANB3 / RFU, CUL4A / Fold change vs veh, CUL4A / RFU, CCNY / Fold change vs veh, CCNY / RFU, UFL1 / Fold change vs veh, UFL1 / RFU, COG3 / Fold change vs veh, COG3 / RFU, DIAPH2 / Fold change vs veh, DIAPH2 / RFU, SKA2 / Fold change vs veh, SKA2 / RFU, AFF3 / Fold change vs veh, AFF3 / RFU, LMF1 / Fold change vs veh, LMF1 / RFU, IPO11 / Fold change vs veh, IPO11 / RFU, DFFB / Fold change vs veh, DFFB / RFU, FOXP1 / Fold change vs veh, FOXP1 / RFU, CARD8 / Fold change vs veh, CARD8 / RFU, STRN3 / Fold change vs veh, STRN3 / RFU, ADK / Fold change vs veh, ADK / RFU, RASSF2 / Fold change vs veh, RASSF2 / RFU, WIPF1 / Fold change vs veh, WIPF1 / RFU, LARP1B / Fold change vs veh, LARP1B / RFU, RASA1 / Fold change vs veh, RASA1 / RFU, RB1 / Fold change vs veh, RB1 / RFU, PPFIA1 / Fold change vs veh, PPFIA1 / RFU, MAT2A / Fold change vs veh, MAT2A / RFU, CCT5 / Fold change vs veh, CCT5 / RFU, WDR92 / Fold change vs veh, WDR92 / RFU, CUX1 / Fold change vs veh, CUX1 / RFU, TTC7A / Fold change vs veh, TTC7A / RFU, TMEM135 / Fold change vs veh, TMEM135 / RFU, DEPTOR / Fold change vs veh, DEPTOR / RFU, CPM / Fold change vs veh, CPM / RFU, DNAJB6 / Fold change vs veh, DNAJB6 / RFU, CACNA2D3 / Fold change vs veh, CACNA2D3 / RFU, DTX4 / Fold change vs veh, DTX4 / RFU, TFCP2 / Fold change vs veh, TFCP2 / RFU, GMCL1 /// GMCL1P1 / Fold change vs veh, GMCL1 /// GMCL1P1 / RFU, AEBP2 / Fold change vs veh, AEBP2 / RFU, SNHG1 /// SNORD22 /// SNORD25 /// SNORD26 /// SNORD27 /// SNORD28 /// SNORD29 /// SNORD31 / Fold change vs veh, SNHG1 /// SNORD22 /// SNORD25 /// SNORD26 /// SNORD27 /// SNORD28 /// SNORD29 /// SNORD31 / Fold change (Aza/veh), C12orf56 (ProbeSet 11735607_a_at) / Fold change (ACY-1035/veh), C12orf56 (ProbeSet 11735607_a_at) / Fold change (Aza/veh), FGFR1OP (ProbeSet 11751329_s_at) / Fold change (ACY-1035/veh), FGFR1OP (ProbeSet 11751329_s_at) / Fold change (Aza/veh), VPS36 (ProbeSet 11739960_a_at) / Fold change (ACY-1035/veh), VPS36 (ProbeSet 11739960_a_at) / RFU SYPL1 (11715823_x_at) / Fold change /veh SYPL1 (11715823_x_at) / RFU IGFBP7 (11715501_s_at) / Fold change /veh IGFBP7 (11715501_s_at) / RFU REEP3 (11722064_at) / Fold change /veh REEP3 (11722064_at) / RFU IGLL1 (11728026_x_at) / Fold change /veh IGLL1 (11728026_x_at): dose or concentration left out as unconfirmed. Conditions: ProbeSet 11734937_a_at; LIST B.

Regarding `Nc1ccc(-c2cccs2)cc1NC(=O)c1ccc2c(c1)cc(C1CC1)n2CCN1CCOCC1` [ACY-1035], the “Fold change vs veh, CNOT2” value is 0.83.
